{"source": "patent US20170105647A1", "about": "“SYSTEMS AND METHODS FOR IDENTIFYING NEUROBIOLOGICAL BIOMARKERS USING EEG” (Children's Medical Center Corporation, priority 2014, published 2017)", "format_in_all_cases": "in vivo, human", "key": {"[1]": {"tested_on": "children with regressive autism (R-ASD), STAR group", "assay": "Subjective evaluation of EEG abnormality, change from first to second study", "description": "Subjective Evaluation of EEG Abnormality: All first and second EEG studies were visually reassessed by a pediatric electroencephalographer blinded to subject history and group identity. All EEGs were reviewed in randomly selected order with respect to group and study order. Each EEG was scored as showing in ascending order of abnormality (if present): paroxysmal sharp theta, sharp waves, and spike or spike wave discharges. After this “blinded” estimation was completed, EEG results were sorted into first and second EEG study order, without group identity; subsequently the electroencephalographer compared each subject's two sequential EEGs and classified their scores as showing “worsening”, “no change”, or “improvement” between the first and second study."}, "[2]": {"tested_on": "children with regressive autism (R-ASD), STAR group", "assay": "4 Hz frequency modulated auditory evoked response (FMAER), before vs after steroid treatment", "conditions": "for Mean Diff. (mean of pre to post difference of 4 Hz FMAER spectral power): STAR group n = 20, oral 2 mg/kg/day", "description": "In this example, subjects with regressive autism were utilized to determine whether application of a corticosteroid would improve language function and show an improved 4 Hz FMAER. […] A pharmacologically untreated clinical convenience sample of children with ASD served as controls.\nSteroid Treated Autism with Regression (STAR): The target group of study subjects was limited to children aged 3-5 years old, diagnosed as having autism with a historically documented period of regression at onset. Regression was defined as the loss of age appropriate language, communication, cognitive ability, and behavior determined by the referring physician and confirmed by the treating neurologist. Patients with a slowly developing plateau or a very slow regression over a prolonged period of time, as opposed to an abrupt regression, were not included in the STAR group.\nSteroid Treatment STAR Patients: Oral prednisolone (Prelone™ or Orapred™) was administered by the parents on a daily basis at 2 mg/kg/day. Dosage was occasionally down-adjusted on the basis of minor complications.\nAll subjects' electrophysiological data utilized in this study were gathered from 30 scalp channels via gold cup electrodes applied with collodion after careful measurement. A 31st channel carried the FMAER trial marker. A 32nd channel carried eye movement and blink artifact information. Data were digitized at 256 Hz after amplification by a Cardionics™ 32 channel EEG amplifier (Cardionics Inc. 910 Baystar Blvd, Webster, Tex. 77598 USA) set to 1-100 Hz pass band. The 30 EEG scalp channels used included the following: FP1, FP2, F7, F3, FZ, F4, F8, FC5, FC1, FC2, FC6, T7, C3, CZ, C4, T8, CP5, CP1, CP2, CP6, P7, P3, PZ, P4, P8, O1, OZ, O2, TP9, and TP10 [28]. Data for the FMAER were gathered over 5-20 minutes with additional time allowed for rest breaks as indicated. The patient and a parent, when behaviorally indicated, were together within view of the technologist through a one-way mirror window in a sound-shielded room, adjacent to the recording equipment. Off-line, the EEG data and accompanying trial markers were visually evaluated and epochs containing excessive eye-blink, muscle and movement artifact were marked for removal from subsequent analysis. All 30 channel data were visually inspected for EEG abnormalities and for creating the common average reference. For the current study, FMAER analysis was restricted to 14 active scalp electrodes: F7, F8, T7, T8, P7, P8, TP9, TP10, F3, F4, C3, C4, P3, and P4.\nFrequency Modulated Auditory Evoked Response (FMAER): Language comprehension requires decoding of rapidly changing speech streams; detection of FM within speech has been hypothesized as essential for accurate phoneme detection and word comprehension. The FMAER was developed as a steady-state EP to assess the brain's response to rapid changes in the frequency modulation (FM) of an applied auditory stimulus in extension of and based upon the pioneering work of Green, Stefanatos and others. […] Midline frontal electrodes (FZ, FC1, FC2) usually manifest bilateral overlapping source dipole projection. […] The FMAER may be normal, or as in pathology, of low amplitude, distorted, or absent. In rare cases of pathology the FMAER source location may be outside the usual STG location and/or the source dipole may point in unexpected directions..\nAs previously detailed, the FMAER was formed from a carrier sine wave at 1000 Hz frequency modulated by a slower 10 Hz sine wave causing the frequency of the carrier wave to shift (“deviate”) between […] at the 10 Hz rate, producing a warbling tone. The 10 Hz sine wave was then amplitude modulated by a slower 4 Hz sine wave such that the warbling (FM modulation) was sinusoidally turned on and off (AM modulated) at the 4 Hz rate. This process caused the 10 Hz “warbling” of the 1000 Hz sine wave carrier to be sinusoidally turned fully on and off (100% modulation) at 4 Hz. […]"}, "[3]": {"tested_on": "children with regressive autism (R-ASD), STAR group", "assay": "DSM-IV criteria for Autistic Disorder, scaled behavioral score", "description": "Behavioral Assessment: The DSM-IV criteria for Autistic Disorder (299.0), aside from employment for diagnosis, were scaled in terms of severity for each STAR group child and the sum of the scaled scores was assigned as behavioral score. The direction of scaling was defined such that the higher the score was, the more severe the behavioral manifestations of ASD were. The symptom items and scaling are described in Table 2. […] Summed scaled item scores were assigned in order to quantify behavioral change in analogy to language change. For the current study scores were selected for the office visit nearest to the first and the second EEG/FMAER studies respectively. Scorers had no knowledge of the current study's goals or design, the future group status of subjects, or the subjects' FMAER results. The NSA group subjects lacked the DSM-IV based behavior scores."}, "[4]": {"tested_on": "children with regressive autism (R-ASD), STAR group", "assay": "Clinical Language Status Questionnaire (CLSQ) language assessment", "description": "Language Assessment, STAR Group: STAR group subjects were followed by their child neurologists using a clinical language assessment, referred to as the “Clinical Language Status Questionnaire (CLSQ)” which was developed in-house well prior to the current study. It is as yet unpublished. The assessment was designed to assist pediatric neurologists involved in the pharmacological treatment of neurological disorders, in estimating language progress or lack thereof—from a child's parent(s)' report and the clinician's direct assessment at the time of a clinical visit. It involves evaluation of both the child's current best expressive and receptive language performance. In the current study, documentation of lack of response improvement or plateau, along with assessment of medical complication(s), constituted the primary evidence used for treatment discontinuation. […] The term “Appears normal” (Table 1) was defined as the clinician's and family's report of normal, age-appropriate speech. None of the children in this study received this score. “Appears nearly normal” was defined as context and age appropriate speech with evidence of mispronunciations, poor or odd word choice, unusual fluency or unusually sparseness, unusual grammatical errors such as errors in tense, pronoun gender match and/or pluralization, and/or requirement of adult speech simplification in order to assure comprehension relative to age expectancy. The difference between “short meaningful 1-2 word phrases” and “meaningful 3+ word phrases” is self-explanatory. Although many well developed language tests exist, as documented by the American Speech-Language-Hearing Association (www.asha.org/assessments.aspx), most tend to be detailed yet too coarsely grained to capture this population's limited language range. They are also typically too time-consuming for repeated administration by neurologists during recurring, clinical check-in visits. In contrast, the CLSQ may be completed in less than ten minutes. An additional advantage of the CLSQ for the current study was its comprehensiveness in capturing the full—while limited—range of language change observed in this patient population. Parents are shown short phrases (without the numerical scores) and asked to identify their child's current relevant expressive and receptive status. The neurologist stands by to clarify, assist, and help resolve two caregivers' divergent opinions. Neurologists using the CLSQ are sensitive to the language performance definitions in question. The study subjects' CLSQ score assignments occurred without prior knowledge of the current study."}, "[5]": {"conditions": "STAR group n = 20, blinded visual EEG rating"}, "[6]": {"conditions": "STAR group n = 20, pre- to post-treatment, CLSQ scale 0-10"}}, "note": "Where “and” joins values, the source holds several entries; their conditions need not be identical. Identical values can stand only once."}
{"smiles": "C[C@]12C=CC(=O)C=C1CC[C@@H]1[C@@H]2[C@@H](O)C[C@@]2(C)[C@H]1CC[C@]2(O)C(=O)CO", "note": "[prednisolone]", "values": [{"measurement": "EEG change Time 1 to Time 2: number of subjects Improved", "setting": "[1]; [5]", "result": 3}, {"measurement": "EEG change Time 1 to Time 2: number of subjects No Change", "setting": "[1]; [5]", "result": 10}, {"measurement": "EEG change Time 1 to Time 2: number of subjects Worse", "setting": "[1]; [5]", "result": 7}, {"measurement": "Steroid effect on EEG abnormalities by visual inspection", "setting": "[1]; STAR vs NSA, Fisher's exact test n.s.", "result": "little evidence for a physiologically meaningful steroid effect on EEG"}, {"measurement": "Electrode measurements of the FMAER 4 Hz response with significant change before vs after steroid therapy", "setting": "[2]; STAR group, matched-paired t-test, 14 electrodes", "result": "nine of 14 and 9 of 14"}, {"measurement": "FMAER response distortion (spectral spread) after steroid treatment", "setting": "[2]; all STAR subjects, FFT of FMAER", "result": "reduction of distortion"}, {"measurement": "Mean Diff. (mean of pre to post difference of 4 Hz FMAER spectral power)", "setting": "[2]; electrode C3", "result": 24.15, "unit": "μV^2/Hz"}, {"measurement": "Mean Diff. (mean of pre to post difference of 4 Hz FMAER spectral power)", "setting": "[2]; electrode C4", "result": 22.66, "unit": "μV^2/Hz"}, {"measurement": "Mean Diff. (mean of pre to post difference of 4 Hz FMAER spectral power)", "setting": "[2]; electrode F3, mean 9.125 months", "result": 47.18, "unit": "μV^2/Hz"}, {"measurement": "Mean Diff. (mean of pre to post difference of 4 Hz FMAER spectral power)", "setting": "[2]; electrode F4", "result": 64.31, "unit": "μV^2/Hz"}, {"measurement": "Mean Diff. (mean of pre to post difference of 4 Hz FMAER spectral power)", "setting": "[2]; electrode F7", "result": 3.38, "unit": "μV^2/Hz"}, {"measurement": "Mean Diff. (mean of pre to post difference of 4 Hz FMAER spectral power)", "setting": "[2]; electrode F8", "result": 18.47, "unit": "μV^2/Hz"}, {"measurement": "Mean Diff. (mean of pre to post difference of 4 Hz FMAER spectral power)", "setting": "[2]; electrode P3", "result": 10.49, "unit": "μV^2/Hz"}, {"measurement": "Mean Diff. (mean of pre to post difference of 4 Hz FMAER spectral power)", "setting": "[2]; electrode P4", "result": 10.52, "unit": "μV^2/Hz"}, {"measurement": "Mean Diff. (mean of pre to post difference of 4 Hz FMAER spectral power)", "setting": "[2]; electrode P7", "result": 65.08, "unit": "μV^2/Hz"}, {"measurement": "Mean Diff. (mean of pre to post difference of 4 Hz FMAER spectral power)", "setting": "[2]; electrode P8", "result": 77.83, "unit": "μV^2/Hz"}, {"measurement": "Mean Diff. (mean of pre to post difference of 4 Hz FMAER spectral power)", "setting": "[2]; electrode T7", "result": 15.49, "unit": "μV^2/Hz"}, {"measurement": "Mean Diff. (mean of pre to post difference of 4 Hz FMAER spectral power)", "setting": "[2]; electrode T8", "result": 30.60, "unit": "μV^2/Hz"}, {"measurement": "Mean Diff. (mean of pre to post difference of 4 Hz FMAER spectral power)", "setting": "[2]; electrode TP9", "result": 56.91, "unit": "μV^2/Hz"}, {"measurement": "Mean Diff. (mean of pre to post difference of 4 Hz FMAER spectral power)", "setting": "[2]; electrode TP10", "result": 83.49, "unit": "μV^2/Hz"}, {"measurement": "Average DSM-IV Score (mean of 14 scored items, 0-3 each)", "setting": "[3]; After treatment", "result": 0.9857}, {"measurement": "Average DSM-IV Score (mean of 14 scored items, 0-3 each)", "setting": "[3]; Before treatment (baseline)", "result": 2.0677}, {"measurement": "Scaled DSM-IV symptom summary scores after steroid treatment", "setting": "[3]; p≦0.00001", "result": "highly significant improvement"}, {"measurement": "Expressive Language change Time 1 to Time 2: number of subjects Better", "setting": "[4]; STAR group n = 20", "result": 17}, {"measurement": "Expressive Language change Time 1 to Time 2: number of subjects NoDiff", "setting": "[4]; STAR group n = 20", "result": 2}, {"measurement": "Expressive Language change Time 1 to Time 2: number of subjects Worse", "setting": "[4]; STAR group n = 20", "result": 1}, {"measurement": "Receptive Language change Time 1 to Time 2: number of subjects Better", "setting": "[4]; STAR group n = 20", "result": 17}, {"measurement": "Receptive Language change Time 1 to Time 2: number of subjects NoDiff", "setting": "[4]; STAR group n = 20", "result": 3}, {"measurement": "Receptive Language change Time 1 to Time 2: number of subjects Worse", "setting": "[4]; STAR group n = 20", "result": 0}, {"measurement": "Mean Diff. of CLSQ score, Time 1 to Time 2, Expressive language", "setting": "[4]; [6]", "result": 4.10}, {"measurement": "Mean Diff. of CLSQ score, Time 1 to Time 2, Receptive language", "setting": "[4]; [6]", "result": 4.80}, {"measurement": "STAR group subjects showing improvement in language ratings", "setting": "[4]; receptive and expressive, study 1 to study 2", "result": "17/20"}]}
